{"source": "patent EP0476645B1", "about": "“Calcium uptake inhibitors” (MERRELL DOW PHARMACEUTICALS INC., priority 1990, dated 1992)", "key": {"Rat PMNL [1]": {"system": "Rat PMNL", "test": "Measurement of intracellular calcium in fMLP-stimulated PMNL preloaded with Fura-2", "format": "cell-based", "conditions": "fMLP stimulus, preincubation with compound 15 minutes at 37°C, concentrations in figure 1", "description": "(§1) Rat PMNL were obtained from exudates resulting from peritoneal injection of 6 mL of 8% sodium caseinate. Eighteen hours after injection rats were killed by carbon dioxide inhalation and the peritoneal cavity lavaged with Hank's balanced salt solution (HBSS). After concentration of the PMNL by centrifugation, contaminating erythrocytes were removed by hypotonic lysis. The PMNL were then washed twice by centrifugation (400 x g for 10 minutes) and resuspended in HBSS. Cell viability was greater than 90% by Trypan Blue exclusion and greater than 90% of the cells were PMNL by Wright-Giemsa stain.\nIntracellular calcium levels were obtained using Fura-2 as fluorescent indicator (Grynkiewicz et al., 1985). Fura-2 was loaded into PMNL as the acetoxymethyl ester (Fura-2/AM) using the method of Korchak et al., (1988). Specifically, 1 X 10⁸ PMNL/mL were incubated in HBSS with 10 µM Fura-2/AM for 10 minutes at 37°C. The cells suspension was then diluted ten fold with HBSS and further incubated for another 20 minutes. The cells were then centrifuged (400 x g for 8 minutes at 25°C) and the PMNL (1 x 10⁷ cells/mL) resuspended in HBSS containing 1% bovine serum albumin. Cells were stored at room temperature and used within 3 hours.\nIntracellular calcium level determinations were made using a dual wavelength spectrofluorometer (Photon Technology International, New Brunswick, NJ). Two mL of PMNL suspension (1 x 10⁷ cells/mL) were stirred magnetically at 37°C. Cells were preincubated with the compounds for 15 minutes at 37°C prior to activation. Where compounds were dissolved in DMSO and added directly, the DMSO never exceeded 0.3% in the final cell suspension. Total change in volume with addition of compounds or vehicle and stimuli never exceeded 3%. Intracellular calcium concentrations were calibrated by setting a maximum calcium level in the cells with the addition of 7 µM ionomycin to PMNL in HBSS containing 1% BSA. This was followed by treatment with 20 mM EGTA for 1 hour to obtain a minimum calcium level. […]"}, "Rat PMNL [2]": {"system": "Rat PMNL", "test": "Myeloperoxidase (MPO) release from stimulated PMNL", "format": "cell-based", "conditions": "for inhibition at 1 µM / inhibition at 3 µM / inhibition at 10 µM / inhibition at 30 µM / inhibition at 100 µM: Rattus norvegicus, PMNL, inhibition of MPO release; for inhibition at 1 µM: 1 µM compound; for inhibition at 3 µM: 3 µM compound; for inhibition at 10 µM: 10 µM compound; for inhibition at 30 µM: 30 µM compound; for inhibition at 100 µM: 100 µM compound; for inhibition of release of myeloperoxidase: fMLP with cytochalasin B, opsonized zymosan or ionomycin stimulus, result in words", "description": "as §1\nMPO release was determined using the MPO catalyzed oxidation of o-dianisidine. The experiments were carried out in 96-well microtiter plates (Webster and Henson, 1978). In each well, 50 microliter (µl) aliquots of a PMNL suspension (2 x 10⁷ cells/mL in HBSS) were incubated with 50 µl of HBSS containing vehicle (0.3% DMSO) or inhibitor for 30 minutes at 37°C. The final DMSO concentration never exceeded 0.3% and was constant throughout each experiment. To activate the PMNL, 50 µl of one of the following were added for 30 minutes at 37°C: N-formyl-Met-Leu-Phe (fMLP; 0.1 µM); phorbol myristate acetate (PMA, 200 ng/mL); or rat serum opsonized zymosan (OZ; 2.6 mg/mL, prepared by the method of Ward et al., 1983). The stimuli were added in 50 µl HBSS which also contained the compounds or vehicle, as appropriate, to avoid changing the inhibitor concentration. Cell activation was terminated by centrifugation of the plates at 600 x g for 5 minutes at 22°C. Aliquots (100 µl) of supernatant were removed from each well and transferred to a 96-well flatbottomed microtiter plate for the MPO assay. To each aliquot of supernatant was added 100 µl of a freshly prepared solution containing 50 µl of 0.2 M sodium phosphate buffer (pH 6.2), 25 µl of 3.9 mM o-dianisidine and 25 µl of 0.015 M hydrogen peroxide. Blanks were obtained using the same solution without hydrogen peroxide. The plates were mixed and then incubated at room temperature in the dark for about 15 minutes. Absorbances of the samples were measured at 450 nm.\nRat PMNL were isolated in HBSS containing Ca⁺². As summarized in the figures below, fMLP stimulation of rat PMNL in the presence of cytochalasin B or with opsonized zymosan or with ionomycin results in the release of myeloperoxidase (fMLP/MPO, OZ/MPO, and ION/MPO; columns 2, 4, and 6 respectively)."}, "[3]": {"conditions": "fMLP stimulus in the presence of cytochalasin B, read-out: IMLP/MPO"}, "[4]": {"conditions": "ionomycin stimulus, read-out: ION/MPO"}, "[5]": {"conditions": "opsonized zymosan stimulus, read-out: OZ/MPO"}}, "note": "Like-named read-outs stand apart in the source and are kept apart here."}
{"smiles": "O=C(C#Cc1ccncc1)c1ccccc1", "note": "[MDL 101,098, 1-Phenyl-3-(4-pyridinyl)-2-propyne-1-one]", "values": [{"measurement": "suppression of the second wave of intracellular calcium changes", "setting": "Rat PMNL [1]", "value": "selective concentration-dependent suppression"}, {"measurement": "inhibition at 1 µM", "setting": "Rat PMNL [2]; [3]", "value": 2.9, "unit": "%"}, {"measurement": "inhibition at 3 µM", "setting": "Rat PMNL [2]; [3]", "value": 7.5, "unit": "%"}, {"measurement": "inhibition at 10 µM", "setting": "Rat PMNL [2]; [3]", "value": 34.9, "unit": "%"}, {"measurement": "inhibition at 30 µM", "setting": "Rat PMNL [2]; [3]", "value": 80.8, "unit": "%"}, {"measurement": "inhibition at 100 µM", "setting": "Rat PMNL [2]; [3]", "value": 96.2, "unit": "%"}, {"measurement": "inhibition at 1 µM", "setting": "Rat PMNL [2]; [4]", "value": -2.8, "unit": "%"}, {"measurement": "inhibition at 3 µM", "setting": "Rat PMNL [2]; [4]", "value": 0, "unit": "%"}, {"measurement": "inhibition at 10 µM", "setting": "Rat PMNL [2]; [4]", "value": 5.7, "unit": "%"}, {"measurement": "inhibition at 30 µM", "setting": "Rat PMNL [2]; [4]", "value": 12.7, "unit": "%"}, {"measurement": "inhibition at 100 µM", "setting": "Rat PMNL [2]; [4]", "value": 88.4, "unit": "%"}, {"measurement": "inhibition at 1 µM", "setting": "Rat PMNL [2]; [5]", "value": 5.4, "unit": "%"}, {"measurement": "inhibition at 3 µM", "setting": "Rat PMNL [2]; [5]", "value": 14.7, "unit": "%"}, {"measurement": "inhibition at 10 µM", "setting": "Rat PMNL [2]; [5]", "value": 48.7, "unit": "%"}, {"measurement": "inhibition at 30 µM", "setting": "Rat PMNL [2]; [5]", "value": 92.2, "unit": "%"}, {"measurement": "inhibition at 100 µM", "setting": "Rat PMNL [2]; [5]", "value": 97.2, "unit": "%"}, {"measurement": "inhibition of release of myeloperoxidase", "setting": "Rat PMNL [2]", "value": "dose dependent inhibition"}]}
{"smiles": "CN(C)c1ccc(C(=O)C#Cc2ccncc2)cc1", "note": "[MDL 102,175, 1-(4-Dimethylaminophenyl)-3-(4-pyridinyl)-2-propyne-1-one]", "values": [{"measurement": "suppression of the second wave of intracellular calcium changes", "setting": "Rat PMNL [1]", "value": "selective concentration-dependent suppression"}, {"measurement": "inhibition at 1 µM", "setting": "Rat PMNL [2]; [3]", "value": 12.6, "unit": "%"}, {"measurement": "inhibition at 3 µM", "setting": "Rat PMNL [2]; [3]", "value": 27.9, "unit": "%"}, {"measurement": "inhibition at 10 µM", "setting": "Rat PMNL [2]; [3]", "value": 70.6, "unit": "%"}, {"measurement": "inhibition at 30 µM", "setting": "Rat PMNL [2]; [3]", "value": 104, "unit": "%"}, {"measurement": "inhibition at 100 µM", "setting": "Rat PMNL [2]; [3]", "value": 113, "unit": "%"}, {"measurement": "inhibition at 1 µM", "setting": "Rat PMNL [2]; [4]", "value": 0.8, "unit": "%"}, {"measurement": "inhibition at 3 µM", "setting": "Rat PMNL [2]; [4]", "value": 1.5, "unit": "%"}, {"measurement": "inhibition at 10 µM", "setting": "Rat PMNL [2]; [4]", "value": 21.3, "unit": "%"}, {"measurement": "inhibition at 30 µM", "setting": "Rat PMNL [2]; [4]", "value": 20.5, "unit": "%"}, {"measurement": "inhibition at 100 µM", "setting": "Rat PMNL [2]; [4]", "value": 83.4, "unit": "%"}, {"measurement": "inhibition at 1 µM", "setting": "Rat PMNL [2]; [5]", "value": 16.9, "unit": "%"}, {"measurement": "inhibition at 3 µM", "setting": "Rat PMNL [2]; [5]", "value": 26.6, "unit": "%"}, {"measurement": "inhibition at 10 µM", "setting": "Rat PMNL [2]; [5]", "value": 78.5, "unit": "%"}, {"measurement": "inhibition at 30 µM", "setting": "Rat PMNL [2]; [5]", "value": 107, "unit": "%"}, {"measurement": "inhibition at 100 µM", "setting": "Rat PMNL [2]; [5]", "value": 118, "unit": "%"}, {"measurement": "inhibition of release of myeloperoxidase", "setting": "Rat PMNL [2]", "value": "dose dependent inhibition"}]}
